# Experimental data taken from article PMC8271877, “Identifying a Deferiprone–Resveratrol Hybrid as an Effective Lipophilic Anti-Plasmodial Agent” (Molecules, 2021).
# Entries after “also recorded” stand apart in the source; their conditions may differ. Where two headings read alike, the source gives them in different places.
# What was measured:
# [1] = set-up: method as in PMID 26424148; settings: cited from earlier work
# [2] = test system: P. falciparum; set-up: method as in PMID 26424148; settings: read-out: IC50, inhibition of P. falciparum growth; cited from earlier work
# [3] = test system: P. falciparum; settings: read-out: IC50 against P. falciparum; cited from earlier work
# [4] = set-up: method as in PMID 28061347; settings: metal-chelating activity; cited from earlier work
# [5] = cited from earlier work
# [6] = Partition coefficient (Po/w), 1-octanol/water system; settings: mean ± SD of three repetitions
# [7] = test system: P. falciparum (3D7 strain); assay: Drug sensitivity test (SYBR Green I), P. falciparum 3D7 strain; assay type: cell-based, Plasmodium falciparum; settings: for IC50: read-out: Absolute IC50 Value, P. falciparum (3D7 Strain)
# [8] = set-up: method as in PMID 32208614; settings: cited from earlier work
# [9] = test system: labile iron pools in P. falciparum-infected red blood cells (PRBCs); assay: Labile iron pool (LIP) in P. falciparum-infected RBC, calcein quenching, flow cytometry; assay type: cell-based, Plasmodium falciparum; settings: for effect on MFI values of PRBCs (LIP content): 25–200 µM, calcein fluorescence, higher MFI = less LIP
# [10] = test system: P. falciparum; set-up: method as in PMID 23266185; settings: read-out: IC50 against P. falciparum; cited from earlier work
# [11] = test system: normal cell line; settings: read-out: IC50, normal cell line; cited from earlier work
# [12] = test system: P. falciparum (K1 strain); assay: Drug sensitivity test (SYBR Green I), P. falciparum K1 strain; assay type: cell-based, Plasmodium falciparum
# [13] = test system: Aβ1–42; set-up: method as in PMID 28061347; settings: read-out: IC50, Cu2+/Fe3+-induced Aβ1–42 aggregation; cited from earlier work
# [14] = test system: healthy human PBMCs; assay: MTT toxicity study in peripheral blood mononuclear cells
# [15] = set-up: method as in PMID 28061347; settings: read-out: IC50, antioxidant activity; cited from earlier work
# [16] = Plasmodium falciparum, 3D7, 48 h
# [17] = Plasmodium falciparum, K1, 48 h, read-out: Absolute IC50 Value, P. falciparum (K1 Strain), PYR-resistant K1, 48 h, monotherapy
structure (smiles),measurement,setting,value
"CC(=O)NCCCCCCn1ccc(=O)c(O)c1C [CM1, 1-(N-acetyl-6-aminohexyl)-3-hydroxy-2-methylpyridin-4-one]",Kpart,[1],0.53
same,IC50,[2],35.1 µM
"COCCOCCOCCOc1cccc(C2=N[C@@](C)(C(=O)O)CS2)c1O [DADFT-PE, (S)3″-(HO)-desazadesferrithiocin-polyether]",IC50,[3],6 µM
"CC(=O)N(O)CCCCCNC(=O)CCC(=O)N(O)CCCCCNC(=O)CCC(=O)N(O)CCCCCN [DFO, desferrioxamine]",IC50,[3],30 µM
"Cc1c(O)c(=O)ccn1C [DFP, 1,2-dimethyl-3-hydroxypyridin-4-one]",pFe(III),[4],20.6
same,log Po/w values for free ligands,[5],−0.77
same,log Po/w values for [Fe-L3],[5]; iron complex,−2.6
same,Po/w Values (partition coefficient),[6],0.18 ± 0.06
same,Kpart,[1],0.17
same,IC50,[2],58.2 µM
same,IC50,[7]; [16],47.7 µM
same,iron-mobilizing efficacy in rats,[8],11.8%
same,effect on MFI values of PRBCs (LIP content),[9],significantly increased the MFI values
same,IC50,[10],67 µM
same,IC50,[11],> 200 µM
same,IC50,[3],15 µM
same,IC50,[12]; [17],42 µM
"Cn1cc(O)c(=O)cc1C=Cc1cc(O)cc(O)c1 [DFP-RVT, 2-(3,5-dihydroxystyryl)-5-hydroxy-1-methylpyridin-4(1H)-one]",pFe(III),[4],19.6
same,IC50,[13],10.7 µM
same,toxicity to PBMCs,"[14]; 200 µM, 48 h of incubation",slightly toxic
same,toxicity to PBMCs,"[14]; 25–200 µM, 24 h of incubation",not found to be toxic
same,"toxicity to PBMCs (words, summary)",[14]; concentrations up to 200 µM,nontoxic to blood mononuclear cells
same,"anti-malarial activity of combined treatment with PYR, 3D7 strain","[7]; DFP-RVT 5–15 µM with 25 nM PYR, 48 h",significant level of enhancement of anti-malarial activity; also recorded: additive effects
same,IC50,[7]; [16],16.8 µM
same,effect on MFI values of PRBCs (LIP content),[9],significantly increased the MFI values
same,reduction in LIP levels in PRBCs compared with DFP (∆MFI),[9]; equal concentrations,more effective than conventional DFP at equal concentrations
same,IC50,[15],1.73 µM
same,"anti-malarial activity of combined treatment with PYR, K1 strain","[12]; DFP-RVT (0–15 µM) with 75 µM PYR, 48 h",significantly enhanced the anti-malarial activity; also recorded: additive effects
same,IC50,[12]; [17],13.4 µM
same,IC50,"[12]; read-out: Absolute IC50 Value, P. falciparum (K1 Strain), PYR-resistant K1, 48 h, monotherapy",14 µM
"CCc1nc(N)nc(N)c1-c1ccc(Cl)cc1 [PYR, pyrimethamine]",IC50,"[7]; PYR-sensitive wild-type 3D7, 48 h, monotherapy",0.05 µM
same,IC50,"[7]; Plasmodium falciparum, 3D7, 48 h, PYR-sensitive wild-type 3D7, 48 h, monotherapy",0.046 µM
same,IC50,"[12]; PYR-resistant K1, 48 h, monotherapy, read-out: Absolute IC50 Value, P. falciparum (K1 Strain)",106 µM
same,IC50,"[12]; Plasmodium falciparum, K1, 48 h, PYR-resistant K1, 48 h, monotherapy, read-out: Absolute IC50 Value, P. falciparum (K1 Strain)",106 µM
"Oc1ccc(/C=C/c2cc(O)cc(O)c2)cc1 [RVT, 3,5,4′-trihydroxy-trans-stilbene]",IC50,[13],11.9 µM
Cc1c(C)c2c(c(C)c1O)CCC(C)(C(=O)O)O2 (stereo not shown) [Trolox],IC50,[15],3.89 µM
COc1cc(/C=C/C(=O)CC(=O)/C=C/c2ccc(O)c(OC)c2)ccc1O [curcumin],IC50,[13],18.7 µM
